Assay results published in patent publication US20170304195A1, “PHARMACEUTICAL FORMULATIONS FOR THE ORAL DELIVERY OF PEPTIDE OR PROTEIN DRUGS” (Cyprumed GmbH, priority 2014, published 2017).
Like-named read-outs stand apart in the source and are kept apart here.

Legend:
[1] = rat, in vivo
Experimental: (§1) Blood was taken from tail vessels at the time points 0, 10, 20, 40, 60, 90, 120 and 180 min after dosing.

in vivo [2] = settings: Sprague Dawley, rat, sc, 0.1 mg/kg
Experimental: as §1

[3] = rat, in vivo; remark: listed apart in the source
Experimental: (§2) Teriparatide (PTH1-34) was dosed subcutaneously in volume of 1 ml/kg (final concentration 0.024 mg/ml teriparatide) to anaesthetized rats. […] Blood was taken from tail vessels at the time points 0, 10, 20, 40, 60, 90, 120 and 180 min after dosing. The teriparatide plasma concentrations were determined using commercial pTH (1-34) human ELISA kit (Biovendor, EU, cat. number RS-1163.0001).

[4] = pH of dissolved solid powder mixtures (Example 17); format: physicochemical
in vivo [5] = settings: Sprague Dawley, rat, sc
Experimental: as §2

[6] = study comparing aprotinin with aminocaproic acid; cited from earlier work

Molecule: CCNC(=O)[C@@H]1CCCN1C(=O)[C@H](CCCNC(=N)N)NC(=O)[C@H](CC(C)C)NC(=O)[C@@H](CC(C)C)NC(=O)[C@H](Cc1ccc(O)cc1)NC(=O)[C@H](CO)NC(=O)[C@H](Cc1c[nH]c2ccccc12)NC(=O)[C@H](Cc1c[nH]cn1)NC(=O)[C@@H]1CCC(=O)N1 [Leuprolide]
- F [1]: 100 ± 19.5%
- AUC(0-t) (in vivo [2]): 130 ng·h/mL
- Cmax (in vivo [2]): 78.9 ± 14.7 ng/mL
- Tmax (in vivo [2]): 20 to 40 min

Molecule: CC[C@H](C)[C@H](NC(=O)[C@H](CCC(=O)O)NC(=O)[C@H](CO)NC(=O)[C@@H](NC(=O)[C@@H](N)CO)C(C)C)C(=O)N[C@@H](CCC(N)=O)C(=O)N[C@@H](CC(C)C)C(=O)N[C@@H](CCSC)C(=O)N[C@@H](Cc1cnc[nH]1)C(=O)N[C@@H](CC(N)=O)C(=O)N[C@@H](CC(C)C)C(=O)NCC(=O)N[C@@H](CCCCN)C(=O)N[C@@H](Cc1cnc[nH]1)C(=O)N[C@@H](CC(C)C)C(=O)N[C@@H](CC(N)=O)C(=O)N[C@@H](CO)C(=O)N[C@@H](CCSC)C(=O)N[C@@H](CCC(=O)O)C(=O)N[C@@H](CCCN=C(N)N)C(=O)N[C@H](C(=O)N[C@@H](CCC(=O)O)C(=O)N[C@@H](Cc1c[nH]c2ccccc12)C(=O)N[C@@H](CC(C)C)C(=O)N[C@@H](CCCN=C(N)N)C(=O)N[C@@H](CCCCN)C(=O)N[C@@H](CCCCN)C(=O)N[C@@H](CC(C)C)C(=O)N[C@@H](CCC(N)=O)C(=O)N[C@@H](CC(=O)O)C(=O)N[C@H](C(=O)N[C@@H](Cc1cnc[nH]1)C(=O)N[C@@H](CC(N)=O)C(=O)N[C@@H](Cc1ccccc1)C(=O)O)C(C)C)C(C)C [PTH(1-34), Teriparatide]
- F [3]: 100 ± 23%
- plasma half-life of PTH(1-34) compared to s.c. administration, in words [3]: increased plasma half-life
- Dissolution pH in 5 ml Aqua purificata ([4]; CuSO4 10 mg, lauroyl carnitine 10 mg, MCC 50 mg, no buffer): 3.6
- Dissolution pH in 5 ml Aqua purificata ([4]; CuSO4 10 mg, lauroyl carnitine 10 mg, gelatin capsule 50 mg, no buffer): 4.4
- Dissolution pH in 5 ml Aqua purificata ([4]; CuSO4 10 mg, lauroyl carnitine 10 mg, lactose 50 mg, 10 mg TRIS): 6.5
- Dissolution pH in 5 ml Aqua purificata ([4]; CuSO4 10 mg, lauroyl carnitine 10 mg, lactose 50 mg, buffer cell empty): 3.2
- Dissolution pH in 5 ml Aqua purificata ([4]; CuSO4 10 mg, sucrose laurate 10 mg, lactose 50 mg, no buffer): 5.0
- Dissolution pH in 5 ml Aqua purificata ([4]; ZnCl2 10 mg, lauroyl carnitine 10 mg, MCC 50 mg, 5 mg TRIS): 6.3
- Dissolution pH in 5 ml Aqua purificata ([4]; ZnCl2 10 mg, lauroyl carnitine 10 mg, MCC 50 mg, no buffer): 3.5
- Dissolution pH in 5 ml Aqua purificata ([4]; ZnCl2 10 mg, lauroyl carnitine 10 mg, gelatin capsule 50 mg, 10 mg TRIS): 6.8
- Dissolution pH in 5 ml Aqua purificata ([4]; ZnCl2 10 mg, lauroyl carnitine 10 mg, gelatin capsule 50 mg, no buffer): 4.3
- Dissolution pH in 5 ml Aqua purificata ([4]; ZnCl2 10 mg, lauroyl carnitine 10 mg, lactose 50 mg, 10 mg TRIS): 7.1
- Dissolution pH in 5 ml Aqua purificata ([4]; ZnCl2 10 mg, lauroyl carnitine 10 mg, lactose 50 mg, buffer cell empty): 2.9
- Dissolution pH in 5 ml Aqua purificata ([4]; ZnSO4 10 mg, lauroyl carnitine 10 mg, lactose 50 mg, 10 mg TRIS): 7.5
- Dissolution pH in 5 ml Aqua purificata ([4]; ZnSO4 10 mg, lauroyl carnitine 10 mg, lactose 50 mg, no buffer): 3.1
- Dissolution pH in 5 ml Aqua purificata ([4]; ZnSO4 10 mg, sucrose laurate 10 mg, lactose 50 mg, no buffer): 6.5
- Tmax (in vivo [5]): 10 min
- half-life (in vivo [5]): 44 ± 8 min

Molecule: Aprotinin
- increase of mortality [6]: 64%
